Assay results: patent US20230183245A1, “IMIDAZO-PYRIMIDONE COMPOUNDS AS PESTICIDES” (BASF SE, priority 2020, published 2023)
Where two headings read alike, the source gives them in different places.

Columns and labels:
Format in all cases: in vivo
[1] = system: Heliothis virescens; assay: Tobacco budworm (Heliothis virescens) microtiter diet test; settings: 120 h, read-out: Egg and larval mortality in comparison with untreated controls
Experimental: (§1) If not otherwise specified, the test solutions are prepared as follows: The active compound is dissolved at the desired concentration in a mixture of 1:1 (vol:vol) distilled water: acteone. The test solution is prepared at the day of use. Test solutions are prepared in general at concentrations of 2500 ppm, 1415 ppm and 800 ppm (wt/vol).
For evaluating control of tobacco budworm (Heliothis virescens) the test unit consisted of 96-well-microtiter plates containing an insect diet and 15-25 H. virescens eggs. The compounds were formulated using a solution containing 75% v/v water and 25% v/v DMSO. Different concentrations of formulated compounds were sprayed onto the insect diet at 10 µl, using a custom built micro atomizer, at two replications. After application, microtiter plates were incubated at about 28 ± 1° C. and about 80 ± 5% relative humidity for 5 days. Egg and larval mortality was then visually assessed.

[2] = system: Myzus persicae; assay: Green peach aphid (Myzus persicae) systemic artificial diet test; settings: 72 h, read-out: Aphid mortality in comparison with untreated controls
Experimental: as §1
For evaluating control of green peach aphid (Myzus persicae) through systemic means the test unit consisted of 96-well-microtiter plates containing liquid artificial diet under an artificial membrane. The compounds were formulated using a solution containing 75% v/v water and 25% v/v DMSO. Different concentrations of formulated compounds were pipetted into the aphid diet, using a custom built pipetter, at two replications. After application, 5 - 8 adult aphids were placed on the artificial membrane inside the microtiter plate wells. The aphids were then allowed to suck on the treated aphid diet and incubated at about 23 ± 1° C. and about 50 ± 5 % relative humidity for 3 days. Aphid mortality and fecundity was then visually assessed.

[3] = system: Anthonomus grandis; assay: Boll weevil (Anthonomus grandis) microtiter diet test; settings: 120 h, read-out: Egg and larval mortality in comparison with untreated controls
Experimental: as §1
For evaluating control of boll weevil (Anthonomus grandis) the test unit consisted of 96-well-microtiter plates containing an insect diet and 5-10 A. grandis eggs. The compounds were formulated using a solution containing 75% v/v water and 25% v/v DMSO. Different concentrations of formulated compounds were sprayed onto the insect diet at 5 µl, using a custom built micro atomizer, at two replications. After application, microtiter plates were incubated at about 25 ± 1° C. and about 75 ± 5% relative humidity for 5 days. Egg and larval mortality was then visually assessed.

[4] = system: Megoura viciae; assay: Vetch aphid (Megoura viciae) broad bean leaf disk test; settings: foliar, 120 h, 5 days, adult aphids on treated leaf disks, read-out: Aphid mortality in comparison with untreated controls
Experimental: as §1
For evaluating control of vetch aphid (Megoura viciae) through contact or systemic means the test unit consisted of 24-well-microtiter plates containing broad bean leaf disks.
The compounds were formulated using a solution containing 75% v/v water and 25% v/v DMSO. Different concentrations of formulated compounds were sprayed onto the leaf disks at 2.5 µl, using a custom built micro atomizer, at two replications. After application, the leaf disks were air-dried and 5 - 8 adult aphids placed on the leaf disks inside the microtiter plate wells. The aphids were then allowed to suck on the treated leaf disks and incubated at about 23 ± 1° C. and about 50 ± 5% relative humidity for 5 days. Aphid mortality and fecundity was then visually assessed.

[5] = system: Nezara viridula; assay: Green soldier stink bug (Nezara viridula) soybean pod spray test; settings: 120 h, 5 days, late 3rd instar, read-out: Percent mortality in comparison with untreated controls
Experimental: as §1
The active compound is dissolved at the desired concentration in a mixture of 1:1 (vol:vol) distilled water: aceteone. Surfactant (Kinetic) is added at a rate of 0.01% (vol/vol).The test solution is prepared at the day of use. Soybean pods are placed in 90 × 50 mm glass Petri dishes lined with moistened filter paper and inoculated with ten late 3rd instar N. viridula. Using a hand atomizer, an approximately 2 ml solution is sprayed into each Petri dish. Treated set-up is kept at about 25-26° C. and relative humidity of about 65-70%. Percent mortality is recorded after 5 days.

[6] = system: Aedes aegypti; assay: whole plant or invertebrate; settings: 48 h, 2 days, freshly hatched larvae, read-out: Larval mortality in comparison with untreated controls
Experimental: as §1
For evaluating control of yellow fever mosquito (Aedes aegypti) the test unit consisted of 96-well-microtiter plates containing 200 µl of tap water per well and 5-15 freshly hatched A. aegypti larvae. The active compounds were formulated using a solution containing 75% (v/v) water and 25% (v/v) DMSO. Different concentrations of formulated compounds or mixtures were sprayed onto the […] at 2.5 µl, using a custom built micro atomizer, at two replications. After application, microtiter plates were incubated at 28 + 1° C., 80 + 5% RH for 2 days. Larval mortality was then visually assessed.

[7] = system: Trialeurodes vaporariorum; assay: Greenhouse whitefly (Trialeurodes vaporariorum) egg plant leaf disk test; settings: foliar, 144 h, 6 days, read-out: Mortality of hatched crawlers in comparison with untreated controls
Experimental: as §1
For evaluating control of Greenhouse Whitefly (Trialeurodes vaporariorum) the test unit consisted of 96-well-microtiter plates containing a leaf disk of egg plant leaf disk with white fly eggs. The compounds or mixtures were formulated using a solution containing 75% water and 25% DMSO. Different concentrations of formulated were sprayed onto the insect diet at 2.5 µl, using a custom built micro atomizer, at two replications. After application, microtiter plates were incubated at 23 ± 1° C., 65 ± 5% RH for 6 days. Mortality of hatched crawlers was then visually assessed.

[8] = 3 days, adult aphids on treated diet
[9] = 800 ppm, 3 days, adult aphids on treated diet

CCS(=O)(=O)c1cc(/C=N/OC)cnc1-c1cn2c(=O)n(C)c(C(F)(F)F)cc2n1 [Compound C-1]
> 75%: mortality at 2500 ppm ([1]; 5 days) | mortality at 2500 ppm [2, 8] | mortality at 2500 ppm ([3]; 5 days) | mortality at 2500 ppm [4] | mortality at 800 ppm [5] | mortality at 800 ppm [6]

CCS(=O)(=O)c1cc(/C=N/O)cnc1-c1cn2c(=O)n(C)c(C(F)(F)F)cc2n1 [Compound C-2]
> 75%: mortality at 2500 ppm ([1]; 5 days) | mortality at 2500 ppm [2, 8] | mortality at 2500 ppm ([3]; 5 days)

CCS(=O)(=O)c1cc(/C=N/OCC(F)(F)F)cnc1-c1cn2c(=O)n(C)c(C(F)(F)F)cc2n1 [Compound C-3, 2-[3-ethylsulfonyl-5-[(E)-2,2,2-trifluoroethoxyiminomethyl]-2-pyridyl]-6-methyl-7-(trifluoromethyl)imidazo[1,2-c]pyrimidin-5-one]
> 75%: mortality at 2500 ppm ([1]; 5 days) | mortality at 2500 ppm [2, 8] | mortality at 2500 ppm ([3]; 5 days) | mortality at 2500 ppm [4] | mortality at 800 ppm [5] | mortality at 800 ppm [6]

CCS(=O)(=O)c1cc(C(C)(C)C#N)cnc1-c1cn2c(=O)n(C)c(C(F)(F)F)cc2n1 [Compound C-5, 2-[5-ethylsulfonyl-6-[6-methyl-5-oxo-7-(trifluoromethyl)imidazo[1,2-c]pyrimidin-2-yl]-3-pyridyl]-2-methyl-propanenitrile]
> 75%: mortality at 2500 ppm ([1]; 5 days) | mortality at 2500 ppm [2, 8] | mortality at 2500 ppm ([3]; 5 days) | mortality at 2500 ppm ([7]; 2500 ppm) | mortality at 800 ppm [5]

CCS(=O)(=O)c1cc(C2(C#N)CC2)cnc1-c1cn2c(=O)n(C3CC3)c(C(F)(F)F)cc2n1 [Compound C-6, 1-[6-[6-cyclopropyl-5-oxo-7-(trifluoromethyl)imidazo[1,2-c]pyrimidin-2-yl]-5-ethylsulfonyl-3-pyridyl]cyclopropanecarbonitrile]
> 75%: mortality at 800 ppm ([1]; 800 ppm, 5 days) | mortality at 800 ppm ([3]; 800 ppm, 5 days) | mortality at 800 ppm [7] | mortality at 800 ppm [5] | mortality at 800 ppm [6]

CCS(=O)(=O)c1cc(C(C)(C)C#N)cnc1-c1cn2c(=O)n(CC3CC3)c(C(F)(F)F)cc2n1 [Compound C-7]
> 75%: mortality at 800 ppm ([1]; 800 ppm, 5 days) | mortality at 800 ppm [2, 9] | mortality at 800 ppm ([3]; 800 ppm, 5 days) | mortality at 800 ppm [5] | mortality at 800 ppm [6]

CCS(=O)(=O)c1cc(/C(C#N)=N/O)cnc1-c1cn2c(=O)n(C3CC3)c(C(F)(F)F)cc2n1 [Compound C-8, (2Z)-2-[6-[6-cyclopropyl-5-oxo-7-(trifluoromethyl)imidazo[1,2-c]pyrimidin-2-yl]-5-ethylsulfonyl-3-pyridyl]-2-hydroxyimino-acetonitrile]
> 75%: mortality at 800 ppm [2, 9]

CCS(=O)(=O)c1cc(/C(C#N)=N/OC)cnc1-c1cn2c(=O)n(C3CC3)c(C(F)(F)F)cc2n1 [Compound C-9]
> 75%: mortality at 800 ppm ([1]; 800 ppm, 5 days) | mortality at 800 ppm [2, 9] | mortality at 800 ppm ([3]; 800 ppm, 5 days) | mortality at 800 ppm [5] | mortality at 800 ppm [6]

CCS(=O)(=O)c1cc(/C(C#N)=N/OCC(F)(F)F)cnc1-c1cn2c(=O)n(C3CC3)c(C(F)(F)F)cc2n1 [Compound C-10]
> 75%: mortality at 800 ppm ([1]; 800 ppm, 5 days) | mortality at 800 ppm [2, 9] | mortality at 800 ppm ([3]; 800 ppm, 5 days) | mortality at 800 ppm [5] | mortality at 800 ppm [6]

CCS(=O)(=O)c1cc(/C(C#N)=N/OCC2CC2)cnc1-c1cn2c(=O)n(C3CC3)c(C(F)(F)F)cc2n1 [Compound C-11]
> 75%: mortality at 800 ppm ([1]; 800 ppm, 5 days) | mortality at 800 ppm [2, 9] | mortality at 800 ppm ([3]; 800 ppm, 5 days) | mortality at 800 ppm [7] | mortality at 800 ppm [5] | mortality at 800 ppm [6]

CCS(=O)(=O)c1cc(/C(C#N)=N/OCC#N)cnc1-c1cn2c(=O)n(C3CC3)c(C(F)(F)F)cc2n1 [Compound C-12]
> 75%: mortality at 800 ppm [2, 9] | mortality at 800 ppm ([3]; 800 ppm, 5 days) | mortality at 800 ppm [6]

CCS(=O)(=O)c1cc(C2=NOC3(CCCC3)C2)cnc1-c1cn2c(=O)n(C3CC3)c(C(F)(F)F)cc2n1 [Compound C-13, 6-cyclopropyl-2-[3-ethylsulfonyl-5-(1-oxa-2-azaspiro[4.4]non-2-en-3-yl)-2-pyridyl]-7-(trifluoromethyl)imidazo[1,2-c]pyrimidin-5-one]
> 75%: mortality at 800 ppm [1] | mortality at 800 ppm [2] | mortality at 800 ppm [3] | mortality at 800 ppm [7] | mortality at 800 ppm [6]

CCO/N=C/c1cnc(-c2cn3c(=O)n(C4CC4)c(C(F)(F)F)cc3n2)c(S(=O)(=O)CC)c1 [Compound C-14]
> 75%: mortality at 800 ppm ([1]; 800 ppm, 5 days) | mortality at 800 ppm [2, 9] | mortality at 800 ppm ([3]; 800 ppm, 5 days) | mortality at 800 ppm [5] | mortality at 800 ppm [6]

CCS(=O)(=O)c1cc(/C=N/OC(C)C)cnc1-c1cn2c(=O)n(C3CC3)c(C(F)(F)F)cc2n1 [Compound C-15]
> 75%: mortality at 800 ppm ([1]; 800 ppm, 5 days) | mortality at 800 ppm [2, 9] | mortality at 800 ppm ([3]; 800 ppm, 5 days) | mortality at 800 ppm [7] | mortality at 800 ppm [5]

CCS(=O)(=O)c1cc(/C=N/OCC(F)(F)F)cnc1-c1cn2c(=O)n(C3CC3)c(C(F)(F)F)cc2n1 [Compound C-16]
> 75%: mortality at 800 ppm ([1]; 800 ppm, 5 days) | mortality at 800 ppm [2, 9] | mortality at 800 ppm ([3]; 800 ppm, 5 days) | mortality at 800 ppm [7]

CCS(=O)(=O)c1cc(/C=N/O)cnc1-c1cn2c(=O)n(C3CC3)c(C(F)(F)F)cc2n1 [Compound C-23, (3E)-6-[6-cyclopropyl-5-oxo-7-(trifluoromethyl)imidazo[1,2-c]pyrimidin-2-yl]-5-ethylsulfonyl-pyridine-3-carbaldehyde oxime]
> 75%: mortality at 800 ppm [2, 9] | mortality at 800 ppm [5]
